Series [1] can be described thus: Microsomal stability in human liver microsomes assessed as intrinsic clearance and measured upto 60 mins in presence of NADPH by LC-MS/MS analysis. In kind it is ADME, Microsome. The note with it: read-out: CLH. (Microsomes from liver hold many membrane-bound enzymes, among them those of drug oxidation.)
Series [2] in a line: Metabolic stability in human hepatocytes assessed as intrinsic clearance and measured upto 60 mins in presence of NADPH by LC-MS/MS analysis. It counts as ADME, cell-based, Hepatocyte. Particulars: read-out: CLH.
Series [3] can be described thus: Metabolic stability in human plasma assessed as half life and measured upto 240 mins by LC-MS/MS analysis. It counts as ADME, cell-free.

Where only a bound is given, the exact number is not on record here.

Data on three molecules can be found in ChEMBL document CHEMBL5223136, “Covalent drugs targeting histidine - an unexploited opportunity?” (RSC Med Chem, 2022).

Regarding `O=C1CCC(N2Cc3ccc(OS(=O)(=O)F)cc3C2=O)C(=O)N1` (configuration not stated), the CLint scaled in series [1] was under 6.1 mL/min/kg; in series [2], under 9.6 mL/min/kg.
The term half-life denotes how long it takes for the measured level to halve. Take `O=C1CCC(N2Cc3ccccc3C2=O)C(=O)N1` (configuration not stated): the CLint scaled was under 6.1 mL/min/kg in series [1] and under 9.6 mL/min/kg in series [2]. For the same molecule, the half-life in series [3] amounted to 1.98 h.
Take `O=C1CCC(N2Cc3ccc(S(=O)(=O)F)cc3C2=O)C(=O)N1` (configuration not stated): the results for the CLint scaled in series [1] and in series [2] were 13.7 mL/min/kg and under 9.6 mL/min/kg, respectively.
